According to ChEMBL document CHEMBL5729184, “Purine derivatives and the use thereof as medicament” (2022):

molecular target: Glutamate receptor ionotropic, NMDA 2B (Homo sapiens, UniProt Q13224); assay: FLIPR Assay: At the assay day cells were washed 3× with assay buffer, 10 μL buffer remained in the wells after washing. 10 μL Ca kit loading buffer (AAT Bioquest) was added to the cells and the plates were incubated with lid for 60 minutes at r.t. 20 μl assay buffer containing 60 μM glycine (20 μM final) and 3 μM glutamate (1 μM final) was added to column 1-23. Fluorescence (indicating the calcium influx as a result of the NR1/NR2B ion channel activation) was read on the FLIPRtetra device for 60 seconds to monitor the glutamate induced effects. After 2 minutes 20 μL of compound or controls (row 1-22) in assay buffer were carefully added to the wells. […] Each assay microtiter plate contained wells (in column 23 or 24) with DMSO controls instead of compound as controls for glycine/glutamate induced fluorescence (high controls) and wells with 1 μM of a reference NR2b NAM as low controls (Compound 22; reference: Layton, Mark E et al, ACS Chemical Neuroscience 2011, 2(7), 352-362).
Sequence (Q13224 whole entry): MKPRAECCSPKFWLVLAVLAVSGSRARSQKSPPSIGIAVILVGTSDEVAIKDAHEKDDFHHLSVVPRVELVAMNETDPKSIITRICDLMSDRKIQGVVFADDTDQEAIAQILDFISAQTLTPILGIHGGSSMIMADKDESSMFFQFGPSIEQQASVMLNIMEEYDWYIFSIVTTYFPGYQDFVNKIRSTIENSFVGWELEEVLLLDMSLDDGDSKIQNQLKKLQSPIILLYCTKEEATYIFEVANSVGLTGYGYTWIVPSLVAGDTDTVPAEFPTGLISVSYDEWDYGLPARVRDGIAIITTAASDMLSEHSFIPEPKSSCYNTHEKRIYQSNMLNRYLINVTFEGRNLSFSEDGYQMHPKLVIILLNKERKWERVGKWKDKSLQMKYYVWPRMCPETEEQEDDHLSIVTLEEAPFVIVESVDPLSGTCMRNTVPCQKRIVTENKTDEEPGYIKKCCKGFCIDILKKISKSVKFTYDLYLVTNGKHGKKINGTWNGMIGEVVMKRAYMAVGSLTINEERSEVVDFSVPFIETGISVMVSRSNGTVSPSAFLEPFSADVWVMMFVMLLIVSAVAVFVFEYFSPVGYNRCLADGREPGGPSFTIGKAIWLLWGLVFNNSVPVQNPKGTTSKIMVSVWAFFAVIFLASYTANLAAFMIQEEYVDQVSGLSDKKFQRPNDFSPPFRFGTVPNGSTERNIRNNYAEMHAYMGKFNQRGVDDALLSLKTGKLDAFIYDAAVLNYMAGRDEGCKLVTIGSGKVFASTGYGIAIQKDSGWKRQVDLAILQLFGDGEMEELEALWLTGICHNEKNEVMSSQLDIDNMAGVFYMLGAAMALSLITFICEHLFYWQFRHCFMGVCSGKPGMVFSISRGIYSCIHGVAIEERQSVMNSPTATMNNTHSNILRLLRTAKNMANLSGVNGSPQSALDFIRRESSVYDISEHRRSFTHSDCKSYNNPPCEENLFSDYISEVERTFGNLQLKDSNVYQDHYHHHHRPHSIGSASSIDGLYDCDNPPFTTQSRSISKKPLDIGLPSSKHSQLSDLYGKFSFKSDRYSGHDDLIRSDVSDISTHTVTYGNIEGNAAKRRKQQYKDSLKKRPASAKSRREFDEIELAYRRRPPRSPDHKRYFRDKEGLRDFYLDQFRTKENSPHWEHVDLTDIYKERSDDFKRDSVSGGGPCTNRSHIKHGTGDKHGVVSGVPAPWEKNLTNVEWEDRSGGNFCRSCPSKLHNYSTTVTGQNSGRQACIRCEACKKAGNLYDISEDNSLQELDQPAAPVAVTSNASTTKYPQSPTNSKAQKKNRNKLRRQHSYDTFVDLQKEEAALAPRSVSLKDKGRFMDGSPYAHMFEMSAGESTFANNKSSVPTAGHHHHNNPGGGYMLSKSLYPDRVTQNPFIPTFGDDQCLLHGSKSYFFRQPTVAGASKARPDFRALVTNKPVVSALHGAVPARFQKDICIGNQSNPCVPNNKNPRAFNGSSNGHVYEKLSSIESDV

Question: Which IC50 does the source give for `Cc1ncnc2[nH]c(C3CN(C(=O)OCc4ccc(F)cc4)CCO3)nc12` (stereo not given) here?
Answer: 637 nM

Question: For `O=C(OCc1ccccc1F)N1CCOC(c2nc3cncnc3[nH]2)C1` (stereo not given), which IC50 is on record?
Answer: 74 nM

Question: `Cc1cccc(COC(=O)N2CCOC(c3nc4cncnc4[nH]3)C2)c1` (stereo not given) was tested. Which IC50 did it give?
Answer: 322 nM

Question: With `Cc1ccc(COC(=O)N2CCOC(c3nc4cncnc4[nH]3)C2)c(F)c1` (stereo not given) as the compound, how does the IC50 read?
Answer: 49 nM

Question: How did the IC50 turn out when `O=C(OCc1ccccc1Cl)N1CCOC(c2nc3cncnc3[nH]2)C1` (stereo not given) was run?
Answer: 88 nM

Question: For `Cc1ncnc2[nH]c(C3CN(C(=O)OCc4ccccc4F)CCO3)nc12` (stereo not given), which IC50 is on record?
Answer: 385 nM

Question: `O=C(OCc1ccc(F)cc1Cl)N1CCOC(c2nc3cncnc3[nH]2)C1` (stereo not given) was tested. Which IC50 did it give?
Answer: 90 nM

Question: With `O=C(OCc1ccc(Cl)c(F)c1)N1CCOC(c2nc3cncnc3[nH]2)C1` (stereo not given) as the compound, how does the IC50 read?
Answer: 314 nM

Question: For `O=C(OCc1c(F)cccc1F)N1CCOC(c2nc3cncnc3[nH]2)C1` (stereo not given), which IC50 is on record?
Answer: 111 nM

Question: How did the IC50 turn out when `O=C(OCc1ccc(Cl)cc1)N1CCOC(c2nc3cncnc3[nH]2)C1` (stereo not given) was run?
Answer: 113 nM

Question: Which IC50 does the source give for `Cc1cccc(COC(=O)N2CCOC(c3nc4cncnc4[nH]3)C2)c1F` (stereo not given) here?
Answer: 83 nM

Question: `O=C(OCc1ccccc1)N1CCOC(c2nc3cncnc3[nH]2)C1` (stereo not given) was tested. Which IC50 did it give?
Answer: 114 nM

Question: `O=C(OCc1ccc(C(F)F)cc1)N1CCOC(c2nc3cncnc3[nH]2)C1` (stereo not given) was tested. Which IC50 did it give?
Answer: 45 nM

Question: How did the IC50 turn out when `Cc1ccc(COC(=O)N2CCO[C@H](c3nc4cncnc4[nH]3)C2)cc1F` was run?
Answer: 100 nM

Question: With `Cc1ccc(COC(=O)N2CCOC(c3nc4cncnc4[nH]3)C2)cc1` (stereo not given) as the compound, how does the IC50 read?
Answer: 67 nM

Question: How did the IC50 turn out when `O=C(OCc1cccc(F)c1)N1CCOC(c2nc3cncnc3[nH]2)C1` (stereo not given) was run?
Answer: 295 nM

Question: With `Cc1cc(F)ccc1COC(=O)N1CCOC(c2nc3cncnc3[nH]2)C1` (stereo not given) as the compound, how does the IC50 read?
Answer: 234 nM

Question: How did the IC50 turn out when `O=C(OCc1ccc(F)cc1)N1CCOC(c2nc3cncnc3[nH]2)C1` (stereo not given) was run?
Answer: 107 nM

Question: For `O=C(OCc1cccc(F)c1F)N1CCOC(c2nc3cncnc3[nH]2)C1` (stereo not given), which IC50 is on record?
Answer: 60 nM

Question: With `Cc1ccc(COC(=O)N2CCOC(c3nc4c(C)ncnc4[nH]3)C2)cc1` (stereo not given) as the compound, how does the IC50 read?
Answer: 150 nM

Question: Which IC50 does the source give for `Cc1c(F)cccc1COC(=O)N1CCOC(c2nc3cncnc3[nH]2)C1` (stereo not given) here?
Answer: 520 nM

Question: With `O=C(OCc1ccc(F)c(F)c1)N1CCOC(c2nc3cncnc3[nH]2)C1` (stereo not given) as the compound, how does the IC50 read?
Answer: 520 nM

Question: For `O=C(OCc1c(F)cc(F)cc1F)N1CCOC(c2nc3cncnc3[nH]2)C1` (stereo not given), which IC50 is on record?
Answer: 84 nM

Question: `Cc1cccc(F)c1COC(=O)N1CCOC(c2nc3cncnc3[nH]2)C1` (stereo not given) was tested. Which IC50 did it give?
Answer: 118 nM

Question: Which IC50 does the source give for `O=C(OCc1ccc(F)cc1F)N1CCOC(c2nc3cncnc3[nH]2)C1` (stereo not given) here?
Answer: 102 nM
